One data set addresses T1, CD38 (rhCD38) (Homo sapiens, UniProt P28907).
T1 construct: ectodomain of recombinant human CD38 (His-tagged)
Briefly: tryptophan fluorescence quenching titration. In kind it is binding.

Data set [1] has as its system T2, NC(=O)c1ccc[n+]([C@@H]2O[C@H](COP(=O)([O-])OP(=O)(O)OC[C@H]3O[C@@H](n4cnc5c4ncn4ccnc54)[C@H](O)[C@@H]3O)[C@@H](O)[C@H]2O)c1.
T2 construct: recombinant human His-tagged CD38 protein
In words: fluorescence hydrolase assay, Km determination. It is filed as biochemical, Homo sapiens.

Broadly, the Kd is the equilibrium constant for the complex coming apart.

Like-named read-outs stand apart in the source and are kept apart here.

T1 sequence (P28907 45-300): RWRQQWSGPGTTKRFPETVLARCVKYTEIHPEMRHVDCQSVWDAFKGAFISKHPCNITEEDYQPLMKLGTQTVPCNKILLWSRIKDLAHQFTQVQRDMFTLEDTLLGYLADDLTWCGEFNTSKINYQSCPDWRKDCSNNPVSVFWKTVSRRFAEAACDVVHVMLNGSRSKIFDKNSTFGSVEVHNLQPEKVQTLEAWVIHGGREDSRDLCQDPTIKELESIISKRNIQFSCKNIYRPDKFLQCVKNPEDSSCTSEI

With `Nc1nc2c(ncn2[C@@H]2O[C@@H]3COP(=O)(S)O[C@H]4[C@@H](O)[C@H](n5cnc6c(N)ncnc65)O[C@@H]4COP(=O)(S)O[C@@H]2[C@@H]3O)c(=O)[nH]1` (stereo partly drawn) [2′3′-cG^sA^sMP], the Kd at CD38 (rhCD38) (read-out: Kd) was found to be 46.3 ± 9.8 µM.

CD38 (rhCD38) (Homo sapiens): the Km in data set [1] is 56.2 ± 8.9 x 10^−6 M.

For the molecule `NC(=O)c1ccc[n+]([C@@H]2O[C@H](COP(=O)([O-])OP(=O)(O)OC[C@H]3O[C@@H](n4cnc5c(N)ncnc54)[C@H](O)[C@@H]3O)[C@@H](O)[C@H]2O)c1` [β-NAD], on CD38 (rhCD38), the Kd stood at 28 ± 9.4 µM.

(Values after article PMC11091702, “CD38 restrains the activity of extracellular cGAMP in a model of multiple myeloma” (iScience, 2024).)
